IC50 and EC50 data for five molecules are collected here from ChEMBL document CHEMBL1158271, “Lupane derivatives from Lophopetalum wallichii with farnesyl protein transferase inhibitory activity” (J Nat Prod, 1996).

Values after ≈ are worked out from the molar mass of the structure shown.

A short description of assay [1]: Inhibition of recombinant protein farnesyltransferase-mediated [3H]FPP transfer after 30 mins by scintillation counting.
The subject of assay [2] is HT. Description: Cytotoxicity against human HT cells. Format: functional, cell-based.
In assay [3] the test system is SK-MEL-2. Description: Cytotoxicity against human SK-MEL-2 cells. Format: functional, cell-based.
A short description of assay [4]: Cytotoxicity against human KBVIN cells. Format: functional, cell-based.
Assay [5] has as its system Col2. Description: Cytotoxicity against human Col2 cells. Format: functional, cell-based.
The subject of assay [6] is ZR-75-1. Description: Cytotoxicity against human ZR-75-1 cells. Format: functional, cell-based.
Assay [7] deals with Lu1. Description: Cytotoxicity against human Lu1 cells. Format: functional, cell-based.
The nature of assay [8]: Cytotoxicity against human BC1 cells. Format: functional, cell-based.
Assay [9] concerns KB. The assay can be described thus: Cytotoxicity against human KB cells. Format: functional, cell-based.
Assay [10] is described as follows: Cytotoxicity against human U373 cells. Format: functional, cell-based, U-373MG ATCC. The note with it: U373 MG.
Assay [11] deals with A-431. The assay can be described thus: Cytotoxicity against human A431 cells. Format: functional, cell-based.
Assay [12] has as its system LNCaP. Description: Cytotoxicity against human LNCAP cells. Format: functional, cell-based.

Consider `CC1(C)C(=O)CC[C@]2(C)[C@H]3CC[C@@H]4[C@H]5[C@H]6[C@@H](C[C@]5(C)CC[C@@]4(C)[C@]3(C)CC[C@@H]12)OC(=O)[C@]61CO1` [20-EPI-OCHRACEOLIDE B], for which the half-maximal inhibitory concentration (IC50) in [1] was above 100 µg/mL.
Turning to `C=C(C)[C@@H]1CC[C@]2(CO)CC[C@]3(C)[C@H](CC[C@@H]4[C@@]5(C)CC[C@H](O)C(C)(C)[C@@H]5CC[C@]43C)[C@@H]12` [BETULIN], in [1], the IC50 was 1 µg/mL.
With `C=C1C(=O)O[C@@H]2C[C@]3(C)CC[C@]4(C)[C@H](CC[C@@H]5[C@@]6(C)CC[C@H](O)C(C)(C)[C@@H]6CC[C@]54C)[C@H]3[C@H]12` [DIHYDRO OCHRACEOLIDE A], the 50% effective concentration (EC50) in assay [2] is 9.6 µg/mL (≈ 21.1 µM); in assay [3], above 20 µg/mL; in assay [4] it was above 20 µg/mL; in assay [5], 12.1 µg/mL (≈ 26.6 µM); in [6], 3 µg/mL (≈ 6.6 µM); in [7] it was 8.9 µg/mL (≈ 19.6 µM). Besides, the half-maximal effective concentration (EC50) in [8] is 10.2 µg/mL (≈ 22.4 µM); in assay [9], above 20 µg/mL; in assay [10], 9.1 µg/mL (≈ 20 µM); in assay [11], 6.8 µg/mL (≈ 15 µM); in assay [12], 14.5 µg/mL (≈ 31.9 µM). The concentration for half-maximal inhibition (IC50) in assay [1] was above 100 µg/mL.
With `C=C(C)[C@@H]1CC[C@]2(C)CC[C@]3(C)[C@H](CC[C@@H]4[C@@]5(C)CC[C@H](O)C(C)(C)[C@@H]5CC[C@]43C)[C@@H]12` [LUPEOL], the IC50 in assay [1] was found to be 65 µg/mL.
Consider `C=C1C(=O)O[C@@H]2C[C@]3(C)CC[C@]4(C)[C@H](CC[C@@H]5[C@@]6(C)CCC(=O)C(C)(C)[C@@H]6CC[C@]54C)[C@H]3[C@H]12` [OCHRACEOLIDE A], for which the EC50 in assay [2] is 8.6 µg/mL (≈ 19 µM); in assay [3], above 20 µg/mL; in assay [4], 17.2 µg/mL (≈ 38 µM); in assay [5], above 20 µg/mL; in assay [6], 4.5 µg/mL (≈ 9.94 µM); in assay [7], 16.1 µg/mL (≈ 35.6 µM). Also, the EC50 in assay [8] was 7.9 µg/mL (≈ 17.5 µM); in [9], above 20 µg/mL; in [10] it was 6.7 µg/mL (≈ 14.8 µM); in [11], above 20 µg/mL; in assay [12] it was 13.4 µg/mL (≈ 29.6 µM). In addition, the IC50 in assay [1] is above 100 µg/mL.
